The target in data set [1] is T1, ERα (Homo sapiens, UniProt P03372).
T1 sequence (P03372 1-595): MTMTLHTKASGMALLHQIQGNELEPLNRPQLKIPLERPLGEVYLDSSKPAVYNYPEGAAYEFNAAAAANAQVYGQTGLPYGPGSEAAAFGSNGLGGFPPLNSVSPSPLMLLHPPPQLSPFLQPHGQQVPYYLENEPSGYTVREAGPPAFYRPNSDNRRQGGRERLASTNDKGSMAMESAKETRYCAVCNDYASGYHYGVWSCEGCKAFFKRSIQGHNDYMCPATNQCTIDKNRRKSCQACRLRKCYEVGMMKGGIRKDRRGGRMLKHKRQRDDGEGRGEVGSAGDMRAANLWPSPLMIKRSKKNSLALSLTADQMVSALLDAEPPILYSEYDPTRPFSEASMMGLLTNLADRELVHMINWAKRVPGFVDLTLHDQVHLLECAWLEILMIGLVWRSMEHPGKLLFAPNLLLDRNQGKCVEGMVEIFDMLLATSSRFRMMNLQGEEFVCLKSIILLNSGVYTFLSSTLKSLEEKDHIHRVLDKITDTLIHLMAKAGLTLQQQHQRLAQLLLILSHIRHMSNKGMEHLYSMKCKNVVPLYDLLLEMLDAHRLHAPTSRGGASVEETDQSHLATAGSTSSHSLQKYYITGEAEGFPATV
The data set can be described thus: ERE-dependent luciferase gene transcription in MCF-7:D5L cells. The data set is classed as cell-based. More on the design: MCF-7:D5L cells, a clone of MCF-7 cells stably transfected with an Estrogen Response Element (ERE)-endowed reporter plasmid; endogenous in cells; host or cells: MCF-7:D5L (MCF-7 clone carrying pERE-Gl-Luciferase). As for the experimental part: Assessment of ER/ERE-dependent luciferase gene transcription in MCF-7:D5L (express ERα) and HEK:ERβ cells (express ERβ) and determination of ER transcriptional agonism was carried as already described. Briefly, the cells were plated in 96-well plates at a density of 12,000 cells per well in phenol-red-free MEM (MCF-7:D5L cells) or phenol-red-free DMEM (HEK:ERβ cells) supplemented with 1 μg/mL insulin and 5% DCC-FBS. […] The AUC of the isoflavonoids of each group were then expressed as % of the AUC of the respective archetypal isoflavone. Since AUC data combine the efficacy as well as the potency of cell response into a single parameter, the %AUC data were considered here as a more reliable measure of relative ER/ERE-dependent luciferase expression of the test compounds.

The test system of data set [2] is HT22 cells. The data set can be described thus: Glutamate toxicity (oxytosis) of HT22 neuronal cells (MTT). The following applies: 1 nM estradiol or 1 μM compound; for viability of HT22 cells under normal growth conditions compared to vehicle-treated cells: no glutamate; for viability of glutamate-treated HT22 cells (% of glutamate-free cells): 5 mM glutamate 24 h. The procedure: Glutamate-challenged HT22 cells suffer oxidative stress-induced cell death (oxytosis) within 24 h due to glutathione depletion and consequent massive accumulation of ROS [42]. The efficacy of test compounds to prevent oxytosis of HT22 cells was assessed as already described. Briefly, HT22 cells were plated in 96-well flat bottom plates at a density of 4,000 cells per well in 100 μl of DMEM (low glucose) containing 2% FBS. 24 h after plating, the cells were treated with test compounds or compound diluent (0.1% DMSO) and then challenged with 5 mM glutamate for 24 h. […] Non-challenged cells served to assess test compound effects on cell viability, whereas challenged cells served to assess the neuroprotective activity of test compounds.

Data set [3] deals with Ishikawa cells. The data set can be described thus: Induction of AlkP expression in Ishikawa cells. The following applies: for Induction of Alkaline Phosphatase Expression (Ishikawa cells) AUC (%): % of AUC of luciferase response of archetypal 3, 4, 5 or 8 up to 0.3, 10, 1.0 and 3.0 μM; for EC (25% of 0.1 nM E2 effect) / activation at 1 µM / EC50: Homo sapiens, Ishikawa; for EC (25% of 0.1 nM E2 effect) / activation at 1 µM: 72 h; for EC (25% of 0.1 nM E2 effect): concentration required to achieve 25% of the effect of 0.1 nM E2, read-out: Induction of Alkaline Phosphatase Expression (Ishikawa cells) EC25E2; for activation at 1 µM: read-out: Induction of AlkP expression (Ishikawa cells) Agonism at 1μΜ (% of 0.1nM E2); for EC50: concentration required to achieve 50% of the effect of 0.1 nM E2, read-out: Induction of Alkaline Phosphatase Expression (Ishikawa cells) EC50E2; for AlkP-inducing agonist effect compared to the effect of 0.1 nM estradiol: isoflavonoids 1 μM, statistically significant effects. In kind it is cell-based, human. Put shortly:
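Ishikawa cells at 12,000 per well were grown in phenol-red-free MEM with 1 μg/mL insulin and 5% DCC-FBS, as an estrogenic read-out. AlkP activity versus isoflavonoid concentration was curve-fitted and AUC derived. AUC was expressed as % of the luciferase-response AUC of the matching archetypal isoflavone.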

Data set [4] addresses T2, ERβ (Homo sapiens, UniProt Q92731). In words: ER binding competitor assay (fluorescent estrogen ES2), ERβ. More on the design: purchased Invitrogen.
The target of data set [5] is T1, ERα. On the set-up: purchased Invitrogen. The following applies: cited from earlier work.
In data set [6] the target is T2, ERβ. More on the design: purchased Invitrogen. The following applies: cited from earlier work.

Each structure is given as a SMILES string.

T2 sequence (Q92731 whole entry): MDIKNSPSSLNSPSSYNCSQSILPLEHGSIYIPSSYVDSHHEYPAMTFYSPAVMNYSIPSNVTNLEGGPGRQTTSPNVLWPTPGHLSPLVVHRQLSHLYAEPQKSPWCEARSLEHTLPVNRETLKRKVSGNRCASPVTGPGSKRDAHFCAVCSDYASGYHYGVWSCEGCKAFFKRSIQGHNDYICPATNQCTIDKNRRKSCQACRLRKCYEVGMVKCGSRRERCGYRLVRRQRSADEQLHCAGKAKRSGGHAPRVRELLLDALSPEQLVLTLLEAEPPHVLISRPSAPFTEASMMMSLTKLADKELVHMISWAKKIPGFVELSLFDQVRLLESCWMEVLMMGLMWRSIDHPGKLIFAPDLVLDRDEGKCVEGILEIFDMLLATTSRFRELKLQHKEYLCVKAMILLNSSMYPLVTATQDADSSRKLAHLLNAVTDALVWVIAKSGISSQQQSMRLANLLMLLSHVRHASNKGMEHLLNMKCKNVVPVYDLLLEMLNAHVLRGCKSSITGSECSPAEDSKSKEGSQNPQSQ

On to `O=c1c(-c2ccc(OC3O[C@H](CO)[C@@H](O)[C@H](O)[C@H]3O)cc2)coc2cc(OC3O[C@H](CO)[C@@H](O)[C@H](O)[C@H]3O)cc(O)c12` (stereo partly drawn) [Compound 11, 7,4΄-di-O-glucopyranosylgenistein], for which the “Induction of ERE-dependent Luciferase Transcription (MCF-7:D5L cells) AUC (%)” value in data set [1] (% of AUC of luciferase response of archetypal 3, 4, 5 or 8 up to 0.3, 10, 1.0 and 3.0 μM) was found to be 75±6%. The “Induction of luciferase gene transcription through ERα, MCF-7:D5L cells, Agonism at 1μΜ (% of 0.1nM E2)” value in data set [1] (compounds 1 μM, estradiol 0.1 nM, 18 h) is reported as 114 ± 4 (Full) % of 0.1nM E2. The “Induction of ERE-dependent Luciferase Transcription (MCF-7:D5L cells) EC25E2” value in data set [1] (concentration required to achieve 25% of the effect of 0.1 nM E2) came to 0.04 ± 0.01 µM. The EC50 in data set [1] (concentration required to achieve 50% of the effect of 0.1 nM E2, read-out: Induction of ERE-dependent Luciferase Transcription (MCF-7:D5L cells) EC50E2) was 150 ± 30 nM. The “ERα-dependent gene transcription agonist effect compared to the effect of 0.1 nM estradiol” value in data set [1] (isoflavonoids 1 μM, statistically significant effects) was “very similar to estradiol”. Moreover, in data set [2], the “viability of HT22 cells under normal growth conditions compared to vehicle-treated cells” value was “not different” and the “viability of glutamate-treated HT22 cells (% of glutamate-free cells)” value is at most 40%. In addition, in data set [3], the “Induction of Alkaline Phosphatase Expression (Ishikawa cells) AUC (%)” value is 66±5%, the EC (25% of 0.1 nM E2 effect) was found to be 0.09 ± 0.01 µM, the activation at 1 µM came out at 105 ± 9% and the EC50 was 160 ± 20 nM. Also, the “AlkP-inducing agonist effect compared to the effect of 0.1 nM estradiol” value in data set [3] is “very similar to estradiol”. Besides, in data set [3] (AUCAlkP / AUCluciferase), the “Ratio of AUC (AlkP / Lucif)” value is on record as 0.88±0.06.
Consider `O=c1c(-c2ccc(O)cc2)coc2cc(O[C@@H]3O[C@H](CO)[C@@H](O)[C@H](O)[C@H]3O)cc(O)c12` [Compound 12, 7-O-β-D-glucopyranosyl-genistein], for which the “RBAβ / RBAα” value in data set [4] (ERβ-binding selectivity) turned out to be 1.75. Besides, in data set [4] (RBA = (IC50 estradiol/IC50 compound) × 100, ES2 1 nM, estradiol set equal to 100), the RBAβ is on record as 0.07 ± 0.02. In addition, in data set [2], the “viability of HT22 cells under normal growth conditions compared to vehicle-treated cells” value is listed as “not different” and the “viability of glutamate-treated HT22 cells (% of glutamate-free cells)” value is recorded as at most 40%. Further, the “mean value (and the range) of previously reported RBAα” value in data set [5] was below 0.01. In data set [3], the “Induction of Alkaline Phosphatase Expression (Ishikawa cells) AUC (%)” value was determined as 110±10%, the EC (25% of 0.1 nM E2 effect) was 0.05 ± 0.01 µM, the activation at 1 µM was determined as 101 ± 5% and the EC50 was 70 ± 10 nM. In data set [3], the “AlkP-inducing agonist effect compared to the effect of 0.1 nM estradiol” value was “very similar to estradiol”. Besides, the “mean value (and the range) of previously reported RBAβ” value in data set [6] is on record as below 0.01.

The values above are taken from article PMC6324813, “Biological evaluation of isoflavonoids from Genista halacsyi using estrogen-target cells: Activities of glucosides compared to aglycones” (PLoS ONE, 2019).
